Ends that are not written are not given here.
Legend:
[1] = test system: male C57BL/N mice on high fat (60%) diet; conditions: any of the DiaPep277 treatments (100-500 μg in intralipid SC or 100 μg in PBS IP), about 16 weeks, FIG. 1
Source text: Mice genetically prone to T2D (dp/dp or ob/ob strains, resistant to leptin), and/or healthy C57BL/6 mice induced to develop T2D by a high fat diet are used in vivo to assess the activity of hsp60 peptides and analogs in protecting against or treatment of T2D. […] In the fat diet model, the diet (for example TD.0811 of Harlan™, or D12492 of Research Diets Inc. containing 21% and 34.9% fat respectively) is initiated after weaning and the mice express T2D by 10 weeks of age.
In a typical trial, groups of T2D mice (10 mice per group) are treated early in the course of the disease (about 7-10 weeks of age). […]
Treatment with DiaPep277 or other hsp60 peptides or analogs, is performed once or several times a week with doses of 100-500 micrograms injected subcutaneously (with adjuvant such as intralipid) or IP, IM or IV (without adjuvant). Glucose tolerance, fasting glucose and fasting insulin levels are measured 1-2 months after onset of treatment.
In one specific in-vivo trial, 70 male C57BL/N mice were weighed, measured for blood glucose levels and divided into seven groups, 10 mice/group as following: […]
Animals of groups 2-7 were fed with 60% fat diet of from age of 5 weeks until termination of the trial. […] After about 16 weeks the trial was terminated and Hemoglobin A1C and C-peptide levels were measured using methods known in the art.

NOD mice = conditions: cited from earlier work

Substance | animal appetite and weight [1] | gamma interferon secretion (NOD mice; after treatment) | p277-specific IL-4 and IL-10 secretion (NOD mice; after treatment) | p277-specific IgG1 antibodies (NOD mice; after treatment) | T-cell reactivity to beta cell antigens (NOD mice; subcutaneous administration) | development of diabetes (NOD mice; subcutaneous administration)
VLGGGVALLRVIPALDSLTPANED [DiaPep277] | did not change | – | – | – | – | –
p277: specific peptide of human hsp60, one of the immunodominant epitopes in autoimmune diabetes; native cysteines at positions 6 and 11 (VLGGGCALLRCIPALDSLTPANED; p277 peptide; UniProt P10809 437-460, looked up, fragment) | – | decrease | increase | induced | down-regulated | prevented the development of diabetes
